Measured values taken from paper PMC10454728, “A Comparative Study on the Lysosomal Cation Channel TMEM175 Using Automated Whole-Cell Patch-Clamp, Lysosomal Patch-Clamp, and Solid Supported Membrane-Based Electrophysiology: Functional Characterization and High-Throughput Screening Assay Development” (International Journal of Molecular Sciences, 2023).
Values joined by “and” are separate entries in the source; they are usually repeats but may differ in a detail not shown here. Equal values may be shown once. “Also recorded” adds a separate entry of the source.

Experiments:
TMEM175 [1] = biological target: T1, TMEM175 (Homo sapiens, UniProt Q9BSA9); assay: Whole-cell automated patch-clamp (APC) Cs+ flux assay, SyncroPatch 384i, HEK293 overexpressing TMEM175; type: cell-based
T1 sequence (Q9BSA9 1-504): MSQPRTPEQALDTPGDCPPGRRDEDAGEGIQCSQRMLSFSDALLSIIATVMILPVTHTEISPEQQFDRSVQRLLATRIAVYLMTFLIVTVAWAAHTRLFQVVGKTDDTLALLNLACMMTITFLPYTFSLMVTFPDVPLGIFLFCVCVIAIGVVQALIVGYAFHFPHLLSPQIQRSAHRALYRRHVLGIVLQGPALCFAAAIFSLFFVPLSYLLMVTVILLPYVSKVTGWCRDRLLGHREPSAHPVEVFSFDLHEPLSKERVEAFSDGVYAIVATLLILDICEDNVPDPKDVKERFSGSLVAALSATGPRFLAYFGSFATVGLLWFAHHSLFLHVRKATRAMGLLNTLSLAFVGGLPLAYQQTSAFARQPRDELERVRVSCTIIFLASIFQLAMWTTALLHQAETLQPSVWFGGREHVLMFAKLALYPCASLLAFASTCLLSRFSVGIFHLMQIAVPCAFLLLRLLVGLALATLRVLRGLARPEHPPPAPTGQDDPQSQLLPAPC
Description: To validate the APC assay, we compared currents between TMEM175-overexpressing cells and control HEK293 UT cells. […] In our compound application protocol, which was used to evaluate compound potencies, we consistently administered tool compounds to assess their impact on TMEM175 activity (Figure 7C).
The voltage protocol generation and data collection were performed with PatchControl384 v1.9.0 and analyzed with DataControl384 v2.2.0. A multi-hole, medium resistance chip with four patch-clamp holes per well was used for recording.
DMSO remained constant at 0.2% and BSA at 0.05% in the external solution throughout the assay, if not stated otherwise.
The voltage protocol applied for the investigation of the tool compounds (Figure 7) consisted of a 500 ms ramp from −80 mV to +80 mV, followed by a 400 ms step from −80 mV to +80 mV before returning to the holding potential of 0 mV (Figure 7B). The maximum outward current amplitude obtained at +80 mV from the ramp section was used for analysis. To investigate the blinded test compounds (Figure 8), an alternative voltage protocol was applied. […] The maximum outward current amplitude obtained at 0 mV from the voltage step section was used for analysis. In both voltage protocols, voltage sweeps were repeated every 10 s and currents sampled at 10 kHz.
The application protocol for agonists consisted of two additions of extracellular physiological solution for a minimum of 3 min, followed by the external application of the test compound for a minimum of 2 min (Figure 7C).
Currents recorded after compound addition were normalized to the baseline current before compound addition, averaged, and plotted over the compound concentration to determine the EC50 and IC50 values.

TMEM175 [2] = conditions: 100 µM, whole-cell configuration, +80 mV; ref [6]; cited from earlier work
TMEM175 [3] = biological target: T1, TMEM175; assay: SSME K+ flux compound assay on purified lysosomes overexpressing TMEM175 (SURFE2R 96SE); type: biochemical; conditions: for Relative current / maximum potentiation, SSME: Imax of dose-response curve, baseline 100%, (50 µM)
Description: In brief, compound measurements using SSME are performed in a three-step process (Figure 6B). First, TMEM175-mediated K^+ translocation is measured through 50 mM K^+ concentration jumps. This represents the baseline current of TMEM175 activity (I0). […] Third, the activation through a 50 mM K^+ concentration jump is repeated, this time in the presence of the compound to record the modulated TMEM175 current (I). In this process, each individual sensor of the 96-well sensor plate is only exposed to a single concentration of the compound. The relative current amplitude I/I0 is used as a measure of the compound effect and averaged across sensors.
We applied 50 mM K^+ concentration jumps in the absence and presence of different compound concentrations to derive information about compound effects on K^+ flux through TMEM175; (B) Time dependence of recorded peak current amplitudes for the complete workflow, which involves multiple sequential measurements. […] The recording of each sensor well starts with the application of a control measurement, rinsing non-activating solution across the sensor (baseline recording). Afterwards, we performed three solution exchange measurements from 50 mM NaCl to 50 mM KCl to measure K^+ flux through TMEM175 (baseline TMEM175 current, I0). We then rinsed the sensor with non-activating solution containing the compound at a given concentration, followed by incubation of 15 min to equilibrate the sensors with the compound. Subsequently, the solution exchange from 50 mM NaCl to 50 mM KCl is repeated twice, but in the presence of the given compound concentration to determine the modulated peak current I. Afterwards, we repeated the measurement in the absence of the compound three times (wash-out) to recover the non-modulated TMEM175 current. We subtracted the average artifact current recorded with control lysosomes from I and I0 (Figure 1K), without considering off-target effects of the tested compound. […] Success rates were determined based on the QC criteria provided in the Methods section. […] We determined average values, AVGpos and AVGneg, and standard deviations, SDpos and SDneg, of the recorded peak currents. […] Error bars represent the SEM obtained from automated data analysis using DataControl96, based on variations of the currents obtained with the TMEM175 sample. Each compound concentration was recorded with at least N = 8 sensors. […] Imin was always fixed to 0 for inhibitors or 1 for enhancers, as indicated. […] A total of 50 µL of 0.1 mM octadecanethiol in isopropanol was added to each sensor well, following incubation for 30 min at room temperature to form an alkanethiol monolayer on the sensor surface. Subsequently, the sensors were washed twice with isopropanol and three times with ddH2O, before dry-tapping on a tissue. The subsequent process of sensor coating with lipid and lysosomes was carried out manually for the SURFE^2R N1 and automated with the SURFE^2R 96SE serving as a pipetting robot. In both cases, 1.5 µL of 7.5 mg/mL 1,2-diphytanoyl-sn-glycero-3-phosphocholine (DPhPC) in n-decane was added to the center of the circular gold surface, followed by the addition of 50 µL of non-activating solution to form the SSM. The composition of the non-activating solution was adjusted for each experiment (Table 2). […] SSM-coated 96-well sensor plates were stored at −80 °C before use.

TMEM175 [4] = biological target: T1, TMEM175; assay: SSME H+ flux assay (pH jumps) on TMEM175 lysosomes (SURFE2R N1); type: biochemical; conditions: corresponding to ~pH 5; read-out: EC50 of H+ influx current vs Δc(H+)
From the text: To further investigate the capability of TMEM175 to translocate protons using SSME, we performed H^+ concentration or pH jumps using the SURFE^2R N1. The non-activating solution was set to pH 7.6, defining both the lysosomal and cytosolic pH before the start of the experiment. By exchanging the non-activating for the activating solution, we acidified the cytosolic solution and stimulated H^+ influx through TMEM175 (Figure 5A).
However, the application of pH jumps lead to significant artifact currents of positive magnitude, as observed with the control lysosomes (Figure 5C). These artifacts are a result of protons interacting with the lipid membranes and/or unknown H^+ leak pathways through the lysosomal membrane. To conclude pure TMEM175-related H^+ currents, we subtracted the artifact currents from the currents recorded with the TMEM175 sample. When plotting ΔpH against the artifact-corrected average TMEM175 net H^+ current, we obtain a close-to-linear correlation (Figure 5D).
For comparison with the I/c curve reported for K^+ (Figure 3E), we calculated the difference in H^+ concentration across the lysosomal membrane Δc = cH^out − cH^in, which correlates linearly with the passive H^+ flux J = PH+Δc according to Fick’s law.
We used H^+ concentration or pH jumps to measure H^+ flux through TMEM175. Non-activating solution was set to pH 7.6, while activating solution contained different pH values between pH 7.4 and pH 4.6; (B) Representative current traces induced by pH jumps on lysosomes overexpressing TMEM175. All current traces were recorded with the same sensor, starting from the lowest ΔpH. […] The remaining current mostly reflects the background (artifact) current after full block of TMEM175; (C) Representative current traces from the same experiment on control lysosomes. […] This represents the artifact current also underlying the currents recorded with the TMEM175 sample; (D) SEM and average, artifact-corrected, normalized peak currents from N = 4 sensors, reflecting the H^+ flux through TMEM175, solely driven by the pH gradient. […]

| Relative current, APC (TMEM175 [1]; enhancer, (30 µM), relative to baseline current (100%)) | EC50 and maximum potentiation in the absence of BSA, APC (TMEM175 [1]; no BSA vs 0.05% BSA) | Maximum potentiation (increase in TMEM175 activity), APC (TMEM175 [1]; standard assay with 0.05% BSA) [%] | EC50 (TMEM175 [1]; tool compounds, Cs+ flux, outward current at +80 mV, 0.05% BSA, read-out: Half saturation (EC50), APC) [µM] | Potency in SSME relative to APC (more potent in SSME) (TMEM175 [3]; EC50 APC / EC50 SSME) [fold] | Relative current / maximum potentiation, SSME (TMEM175 [3]) | Relative current / maximum potentiation, SSME (TMEM175 [3]; listed as arachidonic acid) [%] | EC50 (TMEM175 [3]; tool enhancers, K+ flux, 50 mM K+ jump, pH 7.6, 0 mV, artifact-corrected, read-out: Half saturation (EC50), SSME) | EC50 (TMEM175 [4]) [µM] | SMILES | Increase in K+ flux through TMEM175, literature (TMEM175 [2]) [fold] |
| --- | --- | --- | --- | --- | --- | --- | --- | --- | --- | --- |
| 137 ± 6% (30 µM) | did not affect; also recorded: unaltered | 34 | 83 | 40 | 168 ± 5% (50 µM) | 168 ± 5 | 2300 nM and 2250 nM | – | CCCCC/C=C\C/C=C\C/C=C\C/C=C\CCCC(=O)O [Arachidonic Acid, arachidonic acid] | 14 |
| – | – | – | – | – | – | – | – | 9.5 | [H+] [H^+] | – |
